Test results published in patent US6586422B2, “Pyrazine and triazine derivatives of 1,2,4,5-tetrahydro-Benzo or Thieno [d] azepine” (Hoffman-La Roche Inc., priority 2000, dated 2003).
pIC50: −log10 of the molar value.

Each molecule was assayed against T1, rat mGluR1a receptor (Rattus norvegicus, UniProt P23385) (assay: Binding assay for the characterization of mGluR 1 antagonistic properties (tritiated radioligand displacement, membranes of transfected HEK 293 cells)). Settings: membranes of HEK 293 cells transiently transfected with rat mGluR1a; radioligand 3 nM; 1 hour at room temperature; read-out: B-IC50.
T1 construct: expressed in transfected cells; host or cells: HEK 293 cells (transient transfection; membranes used)
T1 sequence (P23385 19-1199): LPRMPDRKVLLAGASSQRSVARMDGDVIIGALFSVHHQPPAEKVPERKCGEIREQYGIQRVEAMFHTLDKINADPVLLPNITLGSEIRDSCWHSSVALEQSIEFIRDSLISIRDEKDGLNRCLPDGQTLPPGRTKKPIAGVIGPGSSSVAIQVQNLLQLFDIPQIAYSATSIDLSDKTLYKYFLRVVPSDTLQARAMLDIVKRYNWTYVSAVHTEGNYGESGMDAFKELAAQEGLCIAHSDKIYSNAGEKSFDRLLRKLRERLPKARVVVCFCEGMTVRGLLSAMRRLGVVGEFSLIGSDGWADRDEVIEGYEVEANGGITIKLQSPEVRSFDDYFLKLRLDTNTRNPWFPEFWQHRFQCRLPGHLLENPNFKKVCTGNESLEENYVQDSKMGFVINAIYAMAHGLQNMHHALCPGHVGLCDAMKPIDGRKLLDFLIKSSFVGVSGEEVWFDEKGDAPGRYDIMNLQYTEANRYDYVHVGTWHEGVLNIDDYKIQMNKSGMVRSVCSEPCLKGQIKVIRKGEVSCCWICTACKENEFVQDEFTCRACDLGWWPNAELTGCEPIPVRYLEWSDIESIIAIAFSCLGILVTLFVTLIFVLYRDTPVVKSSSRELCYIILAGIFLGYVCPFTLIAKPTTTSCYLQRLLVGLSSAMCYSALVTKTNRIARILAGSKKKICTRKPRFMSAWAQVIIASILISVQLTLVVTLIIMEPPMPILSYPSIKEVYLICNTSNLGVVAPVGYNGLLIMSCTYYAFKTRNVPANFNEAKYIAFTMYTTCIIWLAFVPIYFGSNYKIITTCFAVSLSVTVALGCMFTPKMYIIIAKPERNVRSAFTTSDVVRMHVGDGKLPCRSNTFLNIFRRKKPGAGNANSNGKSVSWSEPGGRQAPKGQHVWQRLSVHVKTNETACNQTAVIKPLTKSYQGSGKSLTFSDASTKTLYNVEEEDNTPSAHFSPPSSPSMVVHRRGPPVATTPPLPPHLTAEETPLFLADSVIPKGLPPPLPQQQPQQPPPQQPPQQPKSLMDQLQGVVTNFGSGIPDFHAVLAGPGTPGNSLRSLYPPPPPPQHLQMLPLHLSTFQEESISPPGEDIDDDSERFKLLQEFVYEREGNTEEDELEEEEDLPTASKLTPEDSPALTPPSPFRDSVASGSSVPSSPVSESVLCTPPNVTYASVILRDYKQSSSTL
Protocol: Binding Assay for the Characterization of mGluR 1 Antagonistic Properties
Binding assay with tritiated 1-ethyl-2-methyl-6-oxo-4-(1,1,2-tritritio-1,2,4,5-tetrahydro-benzo[d]azepin-3-yl)-1,6-dihydro-pyrimidine-5-carbonitrile (Eur. Pat. Appl. EP 1 074 549 A2): HEK 293 cells were transiently transfected with the rat mGluR1a receptor. The cells were collected and washed 3 times with PBS. The cell pellets were frozen at −80° C. Membranes were prepared from HEK 293 cells transfected with the rat mGluR1a receptor and used in the binding experiments at 10 μg proteins per assay after resuspension in a HEPES NaOH 20 mM, pH=7.4 binding buffer. 1-Ethyl-2-methyl-6-oxo-4-(1,1,2-tritritio-1,2,4,5-tetrahydro-benzo[d]azepin-3-yl)-1,6-dihydro-pyrimidine-5-carbonitrile (S.A 33.4 Ci/mmol) was used at 3 nM final concentration. The incubation with variable concentrations of potential inhibitors was performed for 1 hour at room temperature, the incubate was then filtered onto GF/B glass fiber filter preincubated 1 hour in PEI 0,1% and washed 3 times with 1 ml of cold binding buffer. The radioactivity retained on the unifilter 96 was counted using a Topcount β counter. After correction for non specific binding the data were normalized and the IC50 value calculated using a 4 parameters logistic equation which was fitted to the inhibition curve.

| pIC50 | SMILES |
| --- | --- |
| 8.30 | N#Cc1nnc(NCC2CC2)nc1N1CCc2ccccc2CC1 [Example 4, 3-(Cyclopropylmethyl-amino)-5-(1,2,4,5-tetrahydro-benzo[d]azepin-3-yl)-[1,2,4]triazine-6-carbonitrile] |
| 5.52 | COCCOc1nnc(C#N)c(N2CCc3ccccc3CC2)n1 [Example 1, 3-(2-Methoxy-ethoxy)-5-(1,2,4,5-tetrahydro-benzo[d]azepin-3-yl)-[1,2,4]triazine-6-carbonitrile] |
| 6.33 | N#Cc1nccnc1N1CCc2ccccc2CC1 [Example 13, 3-(1,2,4,5-Tetrahydro-benzo[d]azepin-3-yl)-pyrazine-2-carbonitrile] |
| 7.51 | N#Cc1nnc(NCCO)nc1N1CCc2ccccc2CC1 [Example 5, 3-(2-Hydroxy-ethylamino)-5-(1,2,4,5-tetrahydro-benzo[d]azepin-3-yl)-[1,2,4]triazine-6-carbonitrile] |
| 6.43 | N#Cc1nnc(NN)nc1N1CCc2ccccc2CC1 [Example 7, 3-Hydrazino-5-(1,2,4,5-tetrahydro-benzo[d]azepin-3-yl)-[1,2,4]triazine-6-carbonitrile] |
| 5.86 | CN(C)c1nnc(C#N)c(N2CCc3ccccc3CC2)n1 [Example 3, 3-Dimethylamino-5-(1,2,4,5-tetrahydro-benzo[d]azepin-3-yl)-[1,2,4]triazine-6-carbonitrile] |
| 6.30 | N#Cc1ncc(NCCO)nc1N1CCc2ccccc2CC1 [Example 15, 5-(2-Hydroxy-ethylamino)-3-(1,2,4,5-tetrahydro-benzo[d]azepin-3-yl)-pyrazine-2-carbonitrile] |
| 7.54 | N#Cc1nnc(NCCc2cccnc2)nc1N1CCc2ccccc2CC1 [Example 9, 3-(2-Pyridin-3-yl-ethylamino)-5-(1,2,4,5-tetrahydro-benzo[d]azepin-3-yl)-[1,2,4]triazine-6-carbonitrile] |
| 7.57 | N#Cc1nnc(N)nc1N1CCc2ccccc2CC1 [Example 2, 3-Amino-5-(1,2,4,5-tetrahydro-benzo[d]azepin-3-yl)-[1,2,4]triazine-6-carbonitrile] |
| 7.35 | Cc1nc(N2CCc3ccccc3CC2)c(C#N)nc1-c1ccccc1 [Example 14, 5-Methyl-6-phenyl-3-(1,2,4,5-tetrahydro-benzo[d]azepin-3-yl)-pyrazine-2-carbonitrile] |
| 7.57 | CC(O)CNc1nnc(C#N)c(N2CCc3ccccc3CC2)n1 (racemic) [Example 6, (RS)-3-(2-Hydroxy-propylamino)-5-(1,2,4,5-tetrahydro-benzo[d]azepin-3-yl)-[1,2,4]triazine-6-carbonitrile] |
| 7.57 | CC(C)(C)OC(=O)NCCNc1nnc(C#N)c(N2CCc3ccccc3CC2)n1 [Example 8, {2-[6-Cyano-5-(1,2,4,5-tetrahydro-benzo[d]azepin-3-yl)-[1,2,4]triazin-3-ylamino]-ethyl}-Carbamic Acid Tert-Butyl Ester] |
